Assay results: patent US12570994B2, “Plants having increased tolerance to herbicides” (BASF AGRO B.V., priority 2010, dated 2026)

How the values were obtained:
[1] = molecular target: amino acid substituted PPO enzyme R128A (Amaranthus tuberculatus, UniProt Q0NZW9, R128A); experiment: biochemical
[2] = molecular target: amino acid substituted PPO enzyme R128L (Amaranthus tuberculatus, UniProt Q0NZW9, R128L); experiment: biochemical
[3] = molecular target: amino acid substituted PPO enzyme dG210 (Amaranthus tuberculatus, UniProt Q0NZW9, DEL211-211, form not given); type: biochemical
[4] = molecular target: amino acid substituted PPO enzyme L397D (Amaranthus tuberculatus, UniProt Q0NZW9, L397D); experiment: biochemical
[5] = molecular target: amino acid substituted PPO enzyme L397N (Amaranthus tuberculatus, UniProt Q0NZW9, L397N); experiment: biochemical
[6] = molecular target: amino acid substituted PPO enzyme F420M (Amaranthus tuberculatus, UniProt Q0NZW9, F420M); experiment: biochemical
[7] = molecular target: amino acid substituted PPO enzyme F420I (Amaranthus tuberculatus, UniProt Q0NZW9, F420I); experiment: biochemical
[8] = molecular target: amino acid substituted PPO enzyme F420L (Amaranthus tuberculatus, UniProt Q0NZW9, F420L); experiment: biochemical
[9] = molecular target: amino acid substituted PPO enzyme F420V (Amaranthus tuberculatus, UniProt Q0NZW9, F420V); experiment: biochemical
[10] = molecular target: amino acid substituted PPO enzyme R128A, F420M (Amaranthus tuberculatus, UniProt Q0NZW9, F420M/R128A); experiment: biochemical
[11] = molecular target: amino acid substituted PPO enzyme R128A, F420I (Amaranthus tuberculatus, UniProt Q0NZW9, F420I/R128A); experiment: biochemical
[12] = molecular target: amino acid substituted PPO enzyme R128A, F420L (Amaranthus tuberculatus, UniProt Q0NZW9, F420L/R128A); experiment: biochemical

In the case of `C#CCN1C(=O)C(F)(F)Oc2cc(F)c(-n3c(=O)n(C)c(=S)n(C)c3=O)cc21` [benzoxazinone 1.a.35], the IC50 [1] is reported as 0.14 nM, the IC50 [2] is reported as 0.773 nM and the IC50 [3] is reported as 2.12 nM. For the same compound, the IC50 [4] was 0.272 nM, the IC50 [5] was 0.235 nM and the IC50 [6] was 0.275 nM. It also gave an IC50 [7] of 0.495 nM, an IC50 [8] of 0.993 nM and an IC50 [9] of 2.45 nM. For the same compound, the IC50 [10] was 6.24 nM, the IC50 [11] was 19.8 nM and the IC50 [12] was 23.8 nM.
